Test results as given in patent US7338932B2, “Methods of modulating functions of polypeptide GalNAc-transferases and of screening test substances to find agents herefor, pharmaceutical compositions comprising such agents and the use of such agents for preparing medicaments” (Glycozym APS, priority 2000, dated 2008).
pIC50: −log10 of the molar value. Entries after “also recorded” stand apart in the source; their conditions may differ.

What was measured:
[1] = tested on: CHOldlD/MUC1F-clone2 cells; test: Cell surface expression of MUC1 by immunocytology; assay type: cell-based, Chinese Hamster; conditions: 1 mM; cells grown in GalNAc; FIG. 13
Procedure: We therefore investigated the effect of treatment with GalNAcα-benzyl of CHOldlD/MUC1F-clone2 cells grown in the presence of GalNAc. CHOldlD/MUC1F-clone2 cells were seeded in 6 well plates at a density of 0.2×10^6 per well and were grown for 6 hours in Hams F12 medium with serum until approximately 30% subconfluent. […] After 18 hours, the medium was replaced with fresh Optimem containing the sugars and benzyl derivatives as above and grown for 12-48 hours. Initially we analyzed surface expression of MUC1 by immunocytology. Cells were washed once in PBS-CMF (phosphate buffered saline Calcium and Magnesium free) after carefully removing the medium from the wells and subsequently fixed in 2 ml 3% paraformaldehyde at 25° C. for 20 min followed by three washes with PBS-CMF 3 times. Free aldehyde groups were quenched by incubating in 2 mL 50 mM Ammonium Chloride in PBS-CMF for 10 min, followed by three washes with PBS-CMF and three washes with 5 min incubations each with PBS-CMF containing 0.2% Fish Skin Gelatin (Sigma). Immunostaining of cells was performed by incubation with monoclonal antibodies for 40 min at 25° C., followed by three washes with PBS-CMF and three washes of 5 min each with PBS-CMF containing 0.2% Fish Skin Gelatin. […]

[2] = target: Helix Pomatia lectin (HPA) (Helix pomatia, UniProt Q2F1K8); test: Direct binding ELISA, competitive inhibition, Helix Pomatia lectin control; conditions: read-out: Concentration required for 50% inhibition (IC50), HPA; control plant lectin
From the text: Glycopeptides were purified by C-18 reverse phase HPLC. Peptides were custom synthesized by Neosystems (Strasbourg). Biotinylated Helix Pomatia lectin (HPA) was from KemEnTec (Denmark). Anti-MUC1 HMFG2 monoclonal antibody was a generous gift from Joyce Taylor-Papadimitriou. Anti-MUC1 SE5 monoclonal antibody was developed by immunizing Balb/c mice with 60-mer MUC1 tandem repeat peptide glycosylated with 5 moles GalNAc per repeat. Monoclonal antibodies to the lectin domains of human GalNAc-T2 and -T4 were developed as previously described^8, 63.
(§1) Direct binding ELISA assay was developed as follows: Polystyrene microtiter plates (Maxisorb, Nunc, Denmark) were coated with peptides or enzymatically glycosylated glycopeptides in PBS overnight at 4° C. Plates were washed and blocked with 0.1% Tween20 and 0.2% BSA in PBS for 1 h at room temperature, followed by incubation with biotinylated proteins in PBS with 0.05% Tween20 for 2 h at room temperature. After four washes with PBS, plates were incubated with 1:2,000 dilution streptavidin-HRP (Sigma) in PBS for 30 min at room temperature and washed four times with PBS. Development was performed with 0.5 mg/ml o-phenylenediamine and 0.02% H2O2 at room temperature for 15 min, and reaction stopped by adding 100 μl/well of 0.5 N H2SO4. Competitive inhibition assays were done at end-point titers of GalNAc-transferase proteins with one hour preincubations with inhibitor.
Inhibition experiments were used to further define the binding specificity of GalNAc-T2 and -T4 secreted soluble enzymes as well as lectin domains compared to Helix Pomatia lectin (Table VII).

[3] = tested on: CHOldlD/MUC1F-clone2 cells; test: MUC1 expression in cell lysates, immunoprecipitation and SDS-PAGE western blot; assay type: cell-based, Chinese Hamster; conditions: 2 mM
Procedure: We next analysed the expression of MUC1 produced by CHOldlD/MUC1F-clone2 cells by SDS-PAGE western analysis. […] Cells were further treated with 2 mM GalNAcα-benzyl, GlcNAcα-benzyl or no inhibitor. Cells were washed and lysed at 24 or 48 hours and the lysates subjected to immunoprecipitation with monoclonal antibody HMFG2, which broadly recognize MUC1 glycoforms. Immunoprecipitates were analysed by SDS-PAGE and western blot using HMFG2 antibody to detect MUC1 expression. […] In striking contrast, treatment with GalNAcα-benzyl had significant effect after 48 hours. […] This indicates some heterogeneity in glycosylation.
As shown in Examples 8 and 9, polypeptide GalNAc-transferases contain lectin domains with binding properties for GalNAc-peptides including GalNAc-MUC1 peptides. […] GalNAcβ-benzyl, the β-anomeric configuration of GalNAc-benzyl (there is a β linkage between the N-acetylgalactosamine and the benzyl ring), was custom synthesized by Alberta Research Council (Canada), and its structure was confirmed by mass spectrometry and ^1H-NMR. […] Cells were then treated with 2 mM GalNAcα-benzyl, GalNAcβ-benzyl, or GlcNAcα-benzyl as control (GlcNAcα-benzyl was shown in Example 10 to have no effect). Cells were washed and lysed as described above after 36 hours and the lysates subjected to immunoprecipitation with anti-MUC1 monoclonal antibodies HMFG2 or 5E5. […] FIG. 17 illustrates the same experiments as in FIG. 16 except that the detection antibody is 5E5 and only Tn and STn MUC1 glycoforms are visualised.

[4] = target: T1, secreted soluble GalNAc-T4 (sT4) (Homo sapiens, UniProt Q8N4A0); test: Direct binding ELISA to GalNAc-MUC1 glycopeptide, competitive inhibition, sT4
T1 construct: using the GalNAc-T4-sol construct that encodes residues 32-578 inserted into pT7T3U19; 6xHis (N); thrombin cleavage site (N); T7 tag (N); made in house; host or cells: High Five insect cells (baculovirus)
Procedure: Protein biotinylation was made as previously reported^62. The pH of 1 ml purified protein (0.3 mg/ml) in PBS was adjusted to pH 9 with 1 M NaOH and 40 μl N-hydroxy-succinimidobiotin (Sigma) dissolved in DMF (10 mg/ml) was added. The solution was mixed end-over-end for 2 hours at room temperature, and dialyzed three times against PBS and an equal volume of glycerol was added. The biotinylated proteins were stored at −20° C. in 50% glycerol until use.
as §1
In binding studies using lectins without biotinylation antibodies to the HIS-tag and the T7-tag, or in some experiments antibodies raised to GalNAc-T2 and -T4 enzymes were used to detect binding.

[5] = 48 hours, IP HMFG2, blot HMFG2, grown in GalNAc or Gal and GalNAc

Row | Structure (SMILES) | Cell surface expression of MUC1 [1] | pIC50 [2] | MUC1 expression ([3]; 24 hours, IP HMFG2, blot HMFG2) | MUC1 expression ([3]; 36 hours, blot 5E5, cells grown in GalNAc) | MUC1 expression [3, 5] | SDS-PAGE migration of MUC1 (O-glycosylation) ([3]; 48 hours, cells grown in Gal and GalNAc, blot HMFG2) | Inhibition of GalNAc-T4 lectin binding ([4]; FIG. 7, ELISA plates with GalNAc-Muc1) | pIC50 ([4]; binding to GalNAc-MUC1 glycopeptide)
1 | CC(=O)N[C@H]1[C@@H](OCc2ccccc2)O[C@H](CO)[C@H](O)[C@@H]1O [GalNAcα-benzyl] | strong inhibition | 3.30 | no significant effect | strong inhibition | significant reduction in MUC1 expression | significant shift in migration | – | –
2 | CC(=O)N[C@H]1[C@@H](OCc2ccccc2)O[C@H](CO)[C@@H](O)[C@@H]1O [GlcNAcα-benzyl] | no inhibition | 2.70 | – | – | produced the same glycoforms at similar intensity as cells without treatment; also recorded: no effect | – | no inhibition | < 1.00
